Experimental data published in article PMC3706270 (Immunogenetics, 2011).

Tested on: Mamu-A1*007:01
Format: binding, Macaca mulatta
Conditions: Table 4; for Relative binding (WT): binding relative to the WT epitope

Sequence | Relative binding (WT) | Fold decrease (fold decrease of binding affinity versus WT epitope)
NYIYDRHGDTL [Peptide 3408.0007] | <0.000003 | >350000
SQGIRQILFL [Peptide 3408.0014] | 0.0035 | –
YHSNVKEL | 1.0 | –
